Experimental data published in patent US5773228A, “Activation-dependent protein expressed on the surface of activated platelets and antibodies thereto” (The General Hospital Corporation, priority 1995, dated 1998).

System: platelets (TAPP-2 expression)
Test: Expression of TAPP-2 on platelets stimulated by different agonists (binding of 125I-MAb 12A7)
Assay type: cell-based, rabbit
Details: compared to resting platelets, 10 minutes at room temperature
Method: Platelets were incubated with various agonists, with or without Ca^2+ or EDTA and then fixed by paraformaldehyde. The fixed platelets were washed and incubated with ^125 I-MAb 12A7 (50,000 cpm), with or without unlabeled MAb 12A7 (0.5 ug) added as an inhibitor to estimate nonspecific binding. After 45 min. the platelet samples were again washed, spun, and aspirated. The platelet pellet was counted to determine the amount of bound MAb 12A7.
Equilibrium saturation binding studies were conducted in a similar manner. Platelets activated by thrombin (0.15 U/ml) were incubated in duplicate with various amounts of ^125 I-MAb 12A7 (1,000,000 to 6,250 cpm) in a total volume of 200 μl. Each tube also contained a molar excess (>100-fold) of a control, anti-digoxin MAb, of the same isotype (Mudgett-Hunter et al., Mol. Immunol. 22:477-488 (1985)), which was added to inhibit nonspecific binding of ^125 I-MAb 12A7 to platelets via Fc receptors. To estimate nonspecific binding, a molar excess (>100-fold) of nonradioactive MAb 12A7 was added to one set of tubes. After incubation for 45 minutes at room temperature 2 ml of cold Tyrode's buffer was added, the tubes were centrifuged at 3000 ×g for 10 minutes and the unbound ^125 I-12A7 MAb was removed. The bound antibody was measured by gamma counting in Micro-Medics 4/600 counter. To study the binding of MAb 12A7 to resting platelets a similar procedure was performed except that the number of platelets had to be increased to 1.29×10^8 cells in a total incubation volume of 400 μl. The platelets were incubated with various amounts of MAb 12A7 (2,000,000 to 25,000 cpm) as above. The binding data was analyzed by the Ligand program of Munson and Rodbard, Anal. Biochem. 107:220-239 (1980)). […] The binding of 12A7 to platelets stimulated by different agonists was also studied. Platelets were isolated as described above. Platelets (5×10^6 cells/40 Kl) in modified Tyrode's (without divalent cations) were added to plastic tubes. […] After 45 minutes the platelet samples were again washed, spun, aspirated and gamma-counted.

CNc1ccc2oc(C[C@H]3O[C@@]4(CC[C@H]3C)O[C@H]([C@H](C)C(=O)c3ccc[nH]3)[C@H](C)C[C@H]4C)nc2c1C(=O)O [A23187]
TAPP-2 expression as indicated by the binding of 125I-MAb 12A7 (A23187 2 μM): notable increase

Nc1ncnc2c1ncn2[C@@H]1O[C@H](COP(=O)(O)OP(=O)(O)O)[C@@H](O)[C@H]1O [ADP]
TAPP-2 expression as indicated by the binding of 125I-MAb 12A7 (ADP 10 μM): notable increase

CNC[C@H](O)c1ccc(O)c(O)c1 [epinephrine]
TAPP-2 expression as indicated by the binding of 125I-MAb 12A7 (epinephrine 2 μM): little, if any, effect
